Laboratory results reported in ChEMBL document CHEMBL6153132 (J Med Chem, 2025).
Active and inactive are the calls of the source. No cut-off for these calls is given here.

How the values were obtained:
[1] = Metabolic stability in human liver microsome assessed as intrinsic clearance; assay type: ADME; conditions: microsomes
[2] = molecular target: Stromelysin-1 (Homo sapiens) (UniProt P08254); test: Inhibition of MMP3 (unknown origin) at 10 uM relative to control
[3] = Metabolic stability in human liver microsome assessed as half life; assay type: ADME, microsomes; conditions: microsomes
[4] = molecular target: T1, Interstitial collagenase (Homo sapiens) (UniProt P03956); test: Inhibition of MMP1 (unknown origin) at 10 uM relative to control
T1 sequence (whole entry): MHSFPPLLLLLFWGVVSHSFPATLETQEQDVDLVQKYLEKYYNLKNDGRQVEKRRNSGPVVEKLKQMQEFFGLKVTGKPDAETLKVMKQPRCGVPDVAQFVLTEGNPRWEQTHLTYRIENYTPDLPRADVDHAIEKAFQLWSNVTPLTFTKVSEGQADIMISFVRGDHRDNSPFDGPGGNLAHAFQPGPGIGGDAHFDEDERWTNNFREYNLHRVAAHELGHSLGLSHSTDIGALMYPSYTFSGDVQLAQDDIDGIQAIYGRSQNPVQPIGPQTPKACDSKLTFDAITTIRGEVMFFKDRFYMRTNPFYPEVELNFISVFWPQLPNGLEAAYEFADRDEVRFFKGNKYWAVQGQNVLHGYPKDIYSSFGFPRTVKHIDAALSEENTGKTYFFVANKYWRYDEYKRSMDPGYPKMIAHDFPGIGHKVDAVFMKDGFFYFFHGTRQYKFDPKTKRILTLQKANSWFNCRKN

A2780 [5] = test: Induction of cell cycle arrest in human A2780 cells assessed as increase in accumulation of cells at subG1 phase 0.5 to 1 uM; assay type: functional, cell-based; conditions: dose 0.5-1 µM
CAL-27 [6] = test: Anti-apoptotic activity in human CAL-27 cells assessed as increase in survivin expression at 0.5 uM incubated for 48 hrs in presence of cisplatin by Western blot analysis; assay type: functional, cell-based
A2780 [7] = test: cells; conditions: Homo sapiens
CAL-27 [8] = test: cells; conditions: Homo sapiens, CAL-27, 72 h
Cal27CisR [9] = test: Induction of DNA damage in human Cal27CisR cells assessed as gamma-H2AX accumulation at 0.5 uM in presence of cisplatin by Western blot analysis; assay type: functional, cell-based
Cal27CisR [10] = test: Induction of DNA damage in human Cal27CisR cells assessed as gamma-H2AX accumulation at 0.5 uM by Western blot analysis; assay type: functional, cell-based
CAL-27 [11] = test: Induction of apoptosis in human CAL-27 cells assessed as increase in BIM expression at 0.5 uM incubated for 48 hrs in presence of cisplatin by Western blot analysis; assay type: functional, cell-based
[12] = molecular target: Matrix metalloproteinase-9 (Homo sapiens) (UniProt P14780); test: Inhibition of MMP9 (unknown origin) at 10 uM relative to control
Chain of Matrix metalloproteinase-9 (Homo sapiens) (P14780 whole entry): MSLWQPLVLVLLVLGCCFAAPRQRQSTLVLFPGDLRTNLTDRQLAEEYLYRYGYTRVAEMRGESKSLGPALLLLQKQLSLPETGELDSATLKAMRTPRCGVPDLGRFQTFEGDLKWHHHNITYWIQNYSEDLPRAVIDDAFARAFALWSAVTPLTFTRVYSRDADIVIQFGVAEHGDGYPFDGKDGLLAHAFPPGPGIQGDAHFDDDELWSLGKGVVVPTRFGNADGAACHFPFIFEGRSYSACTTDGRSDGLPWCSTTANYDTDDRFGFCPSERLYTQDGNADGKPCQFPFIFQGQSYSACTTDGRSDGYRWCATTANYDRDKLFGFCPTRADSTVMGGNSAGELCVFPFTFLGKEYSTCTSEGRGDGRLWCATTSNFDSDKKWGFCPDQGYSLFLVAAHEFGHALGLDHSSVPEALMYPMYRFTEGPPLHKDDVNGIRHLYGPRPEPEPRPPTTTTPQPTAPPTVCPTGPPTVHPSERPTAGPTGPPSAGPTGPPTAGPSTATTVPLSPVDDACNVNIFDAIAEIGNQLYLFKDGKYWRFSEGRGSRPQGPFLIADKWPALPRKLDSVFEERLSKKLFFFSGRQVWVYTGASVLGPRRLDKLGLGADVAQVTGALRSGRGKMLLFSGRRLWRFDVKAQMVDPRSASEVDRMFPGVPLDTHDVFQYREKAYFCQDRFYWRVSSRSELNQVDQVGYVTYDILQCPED

A2780cisR = test: cells; conditions: Homo sapiens
[13] = molecular target: 72 kDa type IV collagenase (Homo sapiens) (UniProt P08253); test: Inhibition of MMP2 (unknown origin) at 10 uM relative to control
Chain of 72 kDa type IV collagenase (Homo sapiens) (P08253 110-660 limits assumed): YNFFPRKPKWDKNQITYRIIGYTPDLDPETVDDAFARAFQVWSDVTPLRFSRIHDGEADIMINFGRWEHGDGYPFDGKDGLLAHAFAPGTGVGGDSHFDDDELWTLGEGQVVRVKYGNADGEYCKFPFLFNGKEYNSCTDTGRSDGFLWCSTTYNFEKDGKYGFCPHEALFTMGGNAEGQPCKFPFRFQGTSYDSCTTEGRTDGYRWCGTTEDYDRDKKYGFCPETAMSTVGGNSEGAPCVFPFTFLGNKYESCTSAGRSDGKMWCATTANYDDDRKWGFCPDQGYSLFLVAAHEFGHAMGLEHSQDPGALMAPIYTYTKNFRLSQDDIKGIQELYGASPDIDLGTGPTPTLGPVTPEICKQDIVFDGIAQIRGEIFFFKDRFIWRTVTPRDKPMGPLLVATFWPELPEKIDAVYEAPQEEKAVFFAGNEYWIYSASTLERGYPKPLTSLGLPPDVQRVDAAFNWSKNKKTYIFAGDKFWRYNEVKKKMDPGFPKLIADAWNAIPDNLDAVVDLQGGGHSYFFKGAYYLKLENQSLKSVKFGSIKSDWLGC

CAL-27 [14] = test: Anti-apoptotic activity in human CAL-27 cells assessed as increase in BCL-2 expression at 0.5 uM incubated for 48 hrs in presence of cisplatin by Western blot analysis; assay type: functional, cell-based
CAL-27 [15] = test: Anti-apoptotic activity in human CAL-27 cells assessed as increase in survivin expression at 0.5 uM incubated for 48 hrs by Western blot analysis; assay type: functional, cell-based
cells [16] = conditions: Homo sapiens, Cal27CisR
[17] = molecular target: Collagenase 3 (Homo sapiens) (UniProt P45452); test: Inhibition of MMP13 (unknown origin) at 10 uM relative to control
[18] = molecular target: Glutaminyl-peptide cyclotransferase (Homo sapiens) (UniProt Q16769); test: Inhibition of glutaminyl cyclase (unknown origin) at 10 uM relative to control
Chain of Glutaminyl-peptide cyclotransferase (Homo sapiens) (Q16769 29-361 limits assumed): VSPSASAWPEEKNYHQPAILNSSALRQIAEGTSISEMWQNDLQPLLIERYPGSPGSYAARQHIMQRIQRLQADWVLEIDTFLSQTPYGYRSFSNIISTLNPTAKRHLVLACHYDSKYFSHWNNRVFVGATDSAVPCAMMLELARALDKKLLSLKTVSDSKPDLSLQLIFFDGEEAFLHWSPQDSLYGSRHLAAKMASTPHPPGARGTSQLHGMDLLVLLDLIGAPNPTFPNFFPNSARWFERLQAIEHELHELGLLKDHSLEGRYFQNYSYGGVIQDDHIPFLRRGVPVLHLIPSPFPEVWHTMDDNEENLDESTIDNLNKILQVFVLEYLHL

HL-60 = test: cells; conditions: Homo sapiens, HL-60, 72 h
Description: Cytotoxicity against human HL-60 cells assessed as cell viability incubated for 72 hrs by MTT assay

A2780 [19] = test: Induction of cell cycle arrest in human A2780 cells assessed as increase in accumulation of cells at subG1 phase; assay type: functional, cell-based
CAL-27 [20] = test: Induction of apoptosis in human CAL-27 cells assessed as increase in BIM expression at 0.5 uM incubated for 48 hrs by Western blot analysis; assay type: functional, cell-based
CAL-27 [21] = test: Induction of DNA damage in human CAL-27 cells assessed as gamma-H2AX accumulation at 0.5 uM in presence of cisplatin by Western blot analysis; assay type: functional, cell-based
CAL-27 [22] = test: Induction of DNA damage in human CAL-27 cells assessed as gamma-H2AX accumulation at 0.5 uM by Western blot analysis; assay type: functional, cell-based
CAL-27 [23] = test: Anti-apoptotic activity in human CAL-27 cells assessed as increase in BCL-2 expression at 0.5 uM incubated for 48 hrs by Western blot analysis; assay type: functional, cell-based
[24] = Lipophilicity, logD of compound at pH 7.4; assay type: physicochemical; conditions: buffer
cells [25] = conditions: Homo sapiens, Cal27CisR, 72 h

Chain of Stromelysin-1 (Homo sapiens) (P08254 100-477 limits assumed): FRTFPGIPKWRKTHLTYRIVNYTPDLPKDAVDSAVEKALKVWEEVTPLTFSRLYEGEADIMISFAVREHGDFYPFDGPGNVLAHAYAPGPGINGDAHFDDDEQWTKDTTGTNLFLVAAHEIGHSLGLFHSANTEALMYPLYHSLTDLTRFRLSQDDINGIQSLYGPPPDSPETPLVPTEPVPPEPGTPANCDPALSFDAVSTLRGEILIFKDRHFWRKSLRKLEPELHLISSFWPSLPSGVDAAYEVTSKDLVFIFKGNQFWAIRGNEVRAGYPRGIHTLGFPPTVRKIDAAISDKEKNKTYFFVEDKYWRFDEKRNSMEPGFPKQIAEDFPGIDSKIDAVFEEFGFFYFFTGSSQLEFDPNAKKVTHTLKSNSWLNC

Q: For CCNNC(=O)c1ccc(CN(CC(=O)NCc2ccccc2)C(=O)c2ccc(N(C)C)cc2)cc1, which CLH [1] is on record?
A: The CLH was 40.9 µL/min/mg.

Q: And the inhibition [2]?
A: The inhibition was “inactive”.

Q: And the t1/2 [3]?
A: Its t1/2 is 33.93 min.

Q: What about the inhibition [4] of the same compound?
A: Its inhibition is “inactive”.

Q: What about the Activity (A2780 [5]) of the same compound?
A: The Activity was “Active”.

Q: And the Activity (CAL-27 [6])?
A: The Activity was “Active”.

Q: And the IC50 (A2780 [7])?
A: Its IC50 is 3.5 µM.

Q: What about the IC50 (CAL-27 [8]) of the same compound?
A: Its IC50 is 1.47 µM.

Q: What about the Activity (Cal27CisR [9]) of the same compound?
A: The Activity was “Active”.

Q: And the Activity (Cal27CisR [10])?
A: Its Activity is “Active”.

Q: And the Activity (CAL-27 [11])?
A: Its Activity is “Active”.

Q: And the inhibition [12]?
A: The inhibition was “inactive”.

Q: What about the IC50 (A2780cisR) of the same compound?
A: Its IC50 is 16 µM.

Q: What about the inhibition [13] of the same compound?
A: Its inhibition is “inactive”.

Q: And the Activity (CAL-27 [14])?
A: Its Activity is “Active”.

Q: And the Activity (CAL-27 [15])?
A: The Activity was “Active”.

Q: What about the IC50 (cells [16]) of the same compound?
A: The IC50 was 16.5 µM.

Q: And the inhibition [17]?
A: Its inhibition is “inactive”.

Q: What about the inhibition [18] of the same compound?
A: The inhibition was “inactive”.

Q: And the IC50 (HL-60)?
A: The IC50 was 0.969 µM.

Q: What about the Activity (A2780 [19]) of the same compound?
A: The Activity was “Active”.

Q: And the Activity (CAL-27 [20])?
A: The Activity was “Active”.

Q: What about the Activity (CAL-27 [21]) of the same compound?
A: Its Activity is “Active”.

Q: What about the Activity (CAL-27 [22]) of the same compound?
A: Its Activity is “Active”.

Q: What about the Activity (CAL-27 [23]) of the same compound?
A: The Activity was “Active”.

Q: And the logD [24]?
A: The logD was 2.69.

Q: And the IC50 (cells [25])?
A: The IC50 was 2.23 µM.
